The structures appear in SMILES notation.

The first test has as its target T1, FLT3 (Homo sapiens, UniProt P36888).
T1 sequence (P36888 27-993): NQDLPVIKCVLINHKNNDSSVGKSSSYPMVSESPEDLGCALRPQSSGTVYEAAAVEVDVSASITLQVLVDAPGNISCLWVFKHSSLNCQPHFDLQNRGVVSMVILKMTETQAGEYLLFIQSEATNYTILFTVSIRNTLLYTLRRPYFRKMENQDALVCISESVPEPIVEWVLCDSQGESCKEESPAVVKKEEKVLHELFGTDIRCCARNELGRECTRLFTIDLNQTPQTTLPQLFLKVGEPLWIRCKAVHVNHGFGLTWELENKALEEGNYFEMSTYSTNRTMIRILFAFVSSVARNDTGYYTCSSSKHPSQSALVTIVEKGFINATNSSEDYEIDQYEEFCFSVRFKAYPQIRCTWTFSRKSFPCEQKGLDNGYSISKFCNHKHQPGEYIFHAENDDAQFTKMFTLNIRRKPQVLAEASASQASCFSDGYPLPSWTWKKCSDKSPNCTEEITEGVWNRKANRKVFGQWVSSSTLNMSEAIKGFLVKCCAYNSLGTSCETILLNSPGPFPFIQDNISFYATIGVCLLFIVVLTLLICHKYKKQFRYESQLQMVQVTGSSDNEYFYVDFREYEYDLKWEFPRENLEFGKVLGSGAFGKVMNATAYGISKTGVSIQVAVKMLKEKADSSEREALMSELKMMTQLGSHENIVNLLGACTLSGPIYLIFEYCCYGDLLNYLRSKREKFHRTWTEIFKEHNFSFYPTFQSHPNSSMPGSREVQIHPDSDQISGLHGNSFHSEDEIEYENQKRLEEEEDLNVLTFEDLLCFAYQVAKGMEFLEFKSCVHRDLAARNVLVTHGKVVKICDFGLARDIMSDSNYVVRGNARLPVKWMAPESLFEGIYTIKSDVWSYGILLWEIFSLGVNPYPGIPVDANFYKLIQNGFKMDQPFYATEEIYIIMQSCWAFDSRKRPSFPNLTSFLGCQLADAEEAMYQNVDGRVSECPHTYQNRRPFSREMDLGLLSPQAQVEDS
The experiment in a line: NanoBRET target engagement assay in HEK-293 cells, FLT3. Conditions: Table 14; live HEK-293 cells, 1 h. Type of test: cell-based. An excerpt:
The NanoBRET assay measures kinase engagement in real time in the context of the intact cell. Unlike the previously described biochemical kinase assay methodology, the NanoBRET assay measures the binding and activity characteristics under equilibrium conditions using full-length kinases in the presence of cellular concentrations of ATP in live, uncompromised cells. As such, the assay provides a more relevant assessment of kinase potency and selectivity that would be expected to be observed in the native cellular environment, where potency is often considerably lower than that observed in the isolated biochemical assays (Vasta, J. D. et al., (2018) Cell Chem. Biol. 25, 206-214). The assay uses a Kinase-NanoLuc® fusion vector expressing a kinase protein to which a luciferase tag has been added, a cell-permeant fluorescent NanoBRET™ tracer, a NanoLuc® substrate, and an extracellular NanoLuc® inhibitor. Upon expression of the luciferase-tagged kinase, cells will produce a strong BRET signal only in the presence of the NanoBRET™ tracer. The extracellular NanoLuc® inhibitor ensures that the BRET signal observed emanates only from live cells. Because the BRET signal has tight distance constraints, addition of the test compound will decrease the BRET signal if the compound competes with the NanoBRET™ tracer for binding to the kinase domain. Under the appropriate tracer conditions established by the manufacturer, quantitative intracellular affinity and relative potency can then be determined using Mass Action model equations.
HEK-293 cells were purchased from ATCC. FuGENEHD Transfection Reagent, Kinase-NanoLucfusion plasmids, Transfection Carrier DNA, NanoBRETTracers and dilution buffer, NanoBRETNano-Glo Substrate, Extracellular NanoLucInhibitor were obtained from Promega.
Assays were conducted following Promega assay protocol with some modifications. HEK-293 Cells were transiently transfected with Kinase-NanoLucFusion Vector DNA by FuGENEHD Transfection Reagent. Testing compounds were delivered into 384 well assay plate by Echo 550 (LabcyteInc, Sunnyvale, CA). Transfected cells were harvested and mixed with NanoBRETTracer Reagent and dispensed into 384 well plates and incubated at 37 °C in 5% CO2 cell culture incubator for 1 hour. The NanoBRETNano-Glo Substrate plus Extracellular NanoLucInhibitor Solution were added into the wells of the assay plate and incubated for 2-3 minutes at room temperature. The donor emission wavelength (460 nm) and acceptor emission wavelength (600 nm) were measured in the En Visionplate reader. The BRET Ratios were calculated.
BRET Ratio=[(Acceptor sample÷Donor sample)−(Acceptor no-tracer control÷Donor no-tracer control)].
The IC50 values of compounds were calculated with Prism GraphPad program.
• 1). Cultivate HEK-293 cells (70-80% confluence) appropriately prior to assay. Trypsinize and collect HEK-293 cells. • 2). Prepare lipid:DNA complexes as follows: • a. Prepare a 10 μg/ml solution of DNA in Opti-MEM without serum that consists of the following ratios of carrier DNA and DNA encoding NanoLuc® fusion. 9.0 μg/mL of Transfection Carrier DNA, 1.0 μg/mL of NanoLuc fusion vector DNA and 1 mL of Opti-MEM without phenol red. Mix thoroughly. • b. Add 30 μl of FuGENE HD Transfection Reagent into each milliliter of DNA mixture to form lipid:DNA complex. • c. Mix by inversion 10 times. • d. Incubate at ambient temperature for 20 minutes to allow complexes to form. • 3). In a sterile, conical tube, mix 1 part of lipid:DNA complex with 20 parts of HEK-293 cells in suspension. Mix gently by inversion 5 times. • 4). Dispense cells+lipid:DNA complex into a sterile tissue culture dish and incubate for 22-24 hours.
Each test compound is delivered from the compound source plate to the wells of 384-well white NBS plate by Echo 550.
3. Preparation of Cells with NanoBRET™ Tracer Reagent • 1). Remove medium from dish with transfected HEK-293 cells via aspiration, trypsinize and allow cells to dissociate from the dish. • 2). […]
For orientation: Bioluminescence resonance energy transfer reports proximity on the nanometre scale.
With `COc1cn2ncc(-c3nc(N[C@H]4CNCC[C@@H]4F)ccc3F)c2nc1C1CC1` [Compound 3, 6-(5-cyclopropyl-6-methoxypyrazolo[1,5-a]pyrimidin-3-yl)-5-fluoro-N-((3S,4S)-4-fluoropiperidin-3-yl)pyridin-2-amine], the IC50 (in general, the point on the concentration scale where inhibition reaches its midpoint) was < 0.5 nM.
Same read-out and setting: to `COc1cn2ncc(-c3ccc(F)c(N[C@@H]4CCCNC4)n3)c2nc1C1CC1` [Compound 5, (R)-6-(5-cyclopropyl-6-methoxypyrazolo[1,5-a]pyrimidin-3-yl)-3-fluoro-N-(piperidin-3-yl)pyridin-2-amine] belongs 9 nM.
Same read-out and setting: as for `COc1cn2ncc(-c3ccc(F)c(N[C@H]4CNCC[C@@H]4F)n3)c2nc1C1CC1` [Compound 6, 6-(5-cyclopropyl-6-methoxypyrazolo[1,5-a]pyrimidin-3-yl)-3-fluoro-N-((3S,4S)-4-fluoropiperidin-3-yl)pyridin-2-amine], the figure is < 0.5 nM; as for `COc1cn2ncc(-c3nc(N[C@@H]4CCCNC4)c(F)cc3F)c2nc1C(C)(C)O` [Compound 11, (R)-2-(3-(3,5-difluoro-6-(piperidin-3-ylamino)pyridin-2-yl)-6-methoxypyrazolo[1,5-a]pyrimidin-5-yl)propan-2-ol], 5 nM.
The same measure, in the same setting: as for `COc1cn2ncc(-c3nc(N[C@H]4CNC[C@@H]4F)c(F)cc3F)c2nc1C(C)(C)O` [Compound 12, 2-(3-(3,5-difluoro-6-(((3S,4S)-4-fluoropyrrolidin-3-yl)amino)pyridin-2-yl)-6-methoxypyrazolo[1,5-a]pyrimidin-5-yl)propan-2-ol], the figure is 321 nM; as for `COc1cn2ncc(-c3nc(N[C@H]4CNCC[C@@H]4F)c(F)cc3F)c2nc1C(C)(C)O` [Compound 13, 2-(3-(3,5-difluoro-6-(((3S,4S)-4-fluoropiperidin-3-yl)amino)pyridin-2-yl)-6-methoxypyrazolo[1,5-a]pyrimidin-5-yl)propan-2-ol], 4 nM; as for `COc1cn2ncc(-c3cccc(N[C@H]4CNCC[C@@H]4F)n3)c2nc1C1CC1` [Compound 21, 6-(5-cyclopropyl-6-methoxypyrazolo[1,5-a]pyrimidin-3-yl)-N-((3S,4S)-4-fluoropiperidin-3-yl)pyridin-2-amine], 0.6 nM.
With `COc1cn2ncc(-c3nc(N[C@H]4CNCC[C@@H]4F)c(F)cc3F)c2nc1C1CC1` [Compound 22, 6-(5-cyclopropyl-6-methoxypyrazolo[1,5-a]pyrimidin-3-yl)-3,5-difluoro-N-((3S,4S)-4-fluoropiperidin-3-yl)pyridin-2-amine], the half-maximal inhibitory concentration (IC50) is < 0.5 nM.

The test is the same for the next values; noted with them: Table 20; live HEK-293 cells, 1 h.
As to `COc1cn2ncc(-c3ccnc(N[C@H]4CNCC[C@@H]4F)n3)c2nc1C(C)(C)O` [Compound 3a, 2-(3-(2-(((3S,4S)-4-fluoropiperidin-3-yl)amino)pyrimidin-4-yl)-6-methoxypyrazolo[1,5-a]pyrimidin-5-yl)propan-2-ol], the IC50 was found to be 1510 nM. That is a single-digit micromolar value.
Consider `COc1cn2ncc(-c3nc(N[C@@H]4CCCNC4)ncc3F)c2nc1C(C)(C)O` [Compound 4a, (R)-2-(3-(5-fluoro-2-(piperidin-3-ylamino)pyrimidin-4-yl)-6-methoxypyrazolo[1,5-a]pyrimidin-5-yl)propan-2-ol], for which half-maximal inhibition (IC50) required 52 nM.
Same read-out and setting: to `COc1cn2ncc(-c3nc(N[C@H]4CNC[C@@H]4F)ncc3F)c2nc1C(C)(C)O` [Compound 5a, 2-(3-(5-fluoro-2-(((3S,4S)-4-fluoropyrrolidin-3-yl)amino)pyrimidin-4-yl)-6-methoxypyrazolo[1,5-a]pyrimidin-5-yl)propan-2-ol] belongs 113 nM; to `COc1cn2ncc(-c3nc(N[C@H]4CNCC[C@@H]4F)ncc3F)c2nc1C(C)(C)O` [Compound 6a, 2-(3-(5-fluoro-2-(((3S,4S)-4-fluoropiperidin-3-yl)amino)pyrimidin-4-yl)-6-methoxypyrazolo[1,5-a]pyrimidin-5-yl)propan-2-ol], 12 nM.
Same read-out and setting: as for `COc1cn2ncc(-c3ccnc(N[C@H]4CNCC[C@@H]4F)n3)c2nc1C1CC1` [Compound 7a, 4-(5-cyclopropyl-6-methoxypyrazolo[1,5-a]pyrimidin-3-yl)-N-((3S,4S)-4-fluoropiperidin-3-yl)pyrimidin-2-amine], the figure is 9 nM; as for `COc1cn2ncc(-c3ccnc(N[C@H]4CNC[C@@H]4F)n3)c2nc1C1CC1` [Compound 8a, 4-(5-cyclopropyl-6-methoxypyrazolo[1,5-a]pyrimidin-3-yl)-N-((3S,4S)-4-fluoropyrrolidin-3-yl)pyrimidin-2-amine], 11 nM.
Still for that read-out and setting: as for `COc1cn2ncc(-c3cncc(N[C@@H]4CCCNC4)n3)c2nc1C1CC1` [Compound 11a, (R)-6-(5-cyclopropyl-6-methoxypyrazolo[1,5-a]pyrimidin-3-yl)-N-(piperidin-3-yl)pyrazin-2-amine], the figure is 2 nM; as for `COc1cn2ncc(-c3cncc(N[C@H]4CNCC[C@@H]4F)n3)c2nc1C1CC1` [Compound 12a, 6-(5-cyclopropyl-6-methoxypyrazolo[1,5-a]pyrimidin-3-yl)-N-((3S,4S)-4-fluoropiperidin-3-yl)pyrazin-2-amine], 1 nM; as for `COc1cn2ncc(-c3nc(N[C@H]4CNC[C@@H]4F)ncc3F)c2nc1C1CC1` [Compound 13a, 4-(5-cyclopropyl-6-methoxypyrazolo[1,5-a]pyrimidin-3-yl)-5-fluoro-N-((3S,4S)-4-fluoropyrrolidin-3-yl)pyrimidin-2-amine], 0.5 nM.
Consider `COc1cn2ncc(-c3nc(N[C@@H]4CCCNC4)ncc3F)c2nc1C1CC1` [Compound 14a, (R)-4-(5-cyclopropyl-6-methoxypyrazolo[1,5-a]pyrimidin-3-yl)-5-fluoro-N-(piperidin-3-yl)pyrimidin-2-amine], for which the IC50 was < 0.5 nM.
The same measure, in the same setting: as for `COc1cn2ncc(-c3nc(N[C@H]4CNCC[C@@H]4F)ncc3F)c2nc1C1CC1` [Compound 15a, 4-(5-cyclopropyl-6-methoxypyrazolo[1,5-a]pyrimidin-3-yl)-5-fluoro-N-((3S,4S)-4-fluoropiperidin-3-yl)pyrimidin-2-amine], the figure is 2 nM.

(Values after patent publication US20260374773A1, “MULTI-CYCLIC IRAK AND FLT3 INHIBITING COMPOUNDS AND USES THEREOF” (CHILDREN'S HOSPITAL MEDICAL CENTER, priority 2022, published 2026).)
